Patent US20230270738A1, “METHODS OF TREATING AGITATION ASSOCIATED WITH ALZHEIMER'S DISEASE” (Avanir Phrmaceuticals Inc., priority 2020, published 2023)
“Also recorded” adds a separate entry of the source. Where a name gives a salt, the structure may show the parent alone.

Assays:
[1] = Plasma concentrations of d6-DM, d6-DM metabolites and Q by CYP2D6 metabolizer group; assay type: in vivo, human; conditions: for Plasma concentration/exposure in relation to d6-DM dose of AVP-786: AVP-786-28 vs AVP-786-42.63; for Changes in plasma concentrations from Week 6 to Week 12: all patients combined, sample 0-3 hours after morning dose; for Plasma concentration by CYP2D6 metabolizer group: poor, intermediate, extensive, ultra-rapid metabolizers
Description: Plasma samples were separated by centrifugation and frozen at −20° C. until assayed at the analytical unit.

[2] = biological target: sigma-1 receptor (Homo sapiens, UniProt Q99720); conditions: cited from earlier work
Sequence of sigma-1 receptor (Q99720 whole entry, species assumed): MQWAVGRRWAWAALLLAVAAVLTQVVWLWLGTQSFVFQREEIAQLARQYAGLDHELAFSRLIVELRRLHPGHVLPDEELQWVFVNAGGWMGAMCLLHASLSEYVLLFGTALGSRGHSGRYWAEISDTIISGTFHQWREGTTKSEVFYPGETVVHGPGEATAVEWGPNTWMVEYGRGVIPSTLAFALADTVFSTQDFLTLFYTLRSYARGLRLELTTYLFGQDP

[3] = biological target: P-glycoprotein (Homo sapiens, UniProt P08183); conditions: cited from earlier work
Sequence of P-glycoprotein (P08183 whole entry): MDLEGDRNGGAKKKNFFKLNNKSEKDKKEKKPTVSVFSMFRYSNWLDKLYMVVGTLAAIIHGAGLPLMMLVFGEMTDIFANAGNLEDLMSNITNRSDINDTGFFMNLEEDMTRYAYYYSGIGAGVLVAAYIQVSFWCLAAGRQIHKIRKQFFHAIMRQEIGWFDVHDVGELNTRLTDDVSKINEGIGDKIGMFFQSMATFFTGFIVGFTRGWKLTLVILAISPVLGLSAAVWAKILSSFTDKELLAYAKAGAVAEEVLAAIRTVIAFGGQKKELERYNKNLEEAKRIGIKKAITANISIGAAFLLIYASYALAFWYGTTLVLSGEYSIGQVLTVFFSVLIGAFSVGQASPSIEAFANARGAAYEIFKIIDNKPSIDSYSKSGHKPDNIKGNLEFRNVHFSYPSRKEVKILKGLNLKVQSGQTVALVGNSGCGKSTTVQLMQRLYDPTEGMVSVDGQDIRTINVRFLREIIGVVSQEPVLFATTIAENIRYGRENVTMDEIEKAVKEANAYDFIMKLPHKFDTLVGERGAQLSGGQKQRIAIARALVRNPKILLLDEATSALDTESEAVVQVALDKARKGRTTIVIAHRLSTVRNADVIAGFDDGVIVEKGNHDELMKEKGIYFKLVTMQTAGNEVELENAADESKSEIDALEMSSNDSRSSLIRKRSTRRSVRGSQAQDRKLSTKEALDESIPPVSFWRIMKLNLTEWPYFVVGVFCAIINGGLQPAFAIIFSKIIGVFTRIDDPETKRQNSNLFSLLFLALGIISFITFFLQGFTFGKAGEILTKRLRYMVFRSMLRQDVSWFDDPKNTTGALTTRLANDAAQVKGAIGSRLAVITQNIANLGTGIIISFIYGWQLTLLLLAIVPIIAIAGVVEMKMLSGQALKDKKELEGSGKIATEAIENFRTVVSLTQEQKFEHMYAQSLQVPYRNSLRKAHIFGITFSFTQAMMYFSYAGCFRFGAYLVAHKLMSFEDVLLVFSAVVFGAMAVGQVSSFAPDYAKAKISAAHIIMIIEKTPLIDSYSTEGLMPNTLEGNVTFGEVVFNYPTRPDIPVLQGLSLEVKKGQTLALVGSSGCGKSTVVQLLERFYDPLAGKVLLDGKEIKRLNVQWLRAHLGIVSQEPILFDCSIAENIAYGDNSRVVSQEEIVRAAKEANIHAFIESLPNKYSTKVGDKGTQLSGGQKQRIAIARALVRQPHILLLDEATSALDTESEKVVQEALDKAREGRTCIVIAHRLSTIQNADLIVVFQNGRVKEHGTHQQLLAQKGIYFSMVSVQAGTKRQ

Compound | Plasma concentration/exposure in relation to d6-DM dose of AVP-786 ([1]; hydrobromide) | Changes in plasma concentrations from Week 6 to Week 12 [1] | Plasma concentration by CYP2D6 metabolizer group [1] | receptor binding [2] | P-glycoprotein inhibition [3] | Plasma concentration/exposure in relation to d6-DM dose of AVP-786 [1]
[2H]C([2H])([2H])Oc1ccc2c(c1)[C@]13CCCC[C@@H]1[C@H](C2)N(C([2H])([2H])[2H])CC3 [d6-DM, deuterated [d6]-dextromethorphan hydrobromide] | generally higher; also recorded: increased with the increase in d6-DM dose | did not appear to be any significant changes | highest in the poor and intermediate metabolizer groups and lowest in the ultra-rapid metabolizer group | binds to the sigma-1 receptor | – | –
C=C[C@H]1C[N@@]2CC[C@H]1C[C@@H]2[C@@H](O)c1ccnc2ccc(OC)cc12 [Q, Quinidine, reference compound] | – | did not appear to be any significant changes | – | – | – | –
C=C[C@H]1C[N@]2CC[C@@H]1C[C@@H]2[C@@H](O)c1ccnc2ccc(OC)cc12 [Quinidine, quinidine sulfate] | – | – | – | – | P-glycoprotein inhibitor | –
[2H]C([2H])([2H])Oc1ccc2c(c1)C13CCCCC1C(C2)NCC3 (centres unmarked) [d3-3-MM, d3-3-methoxymorphinan] | – | did not appear to be any significant changes | highest in the poor and intermediate metabolizer groups and lowest in the ultra-rapid metabolizer group | – | – | –
[2H]C([2H])([2H])N1CCC23CCCCC2C1Cc1ccc(O)cc13 (centres unmarked) [d3-DX, d3-dextrorphan] | – | did not appear to be any significant changes | lowest in the poor metabolizer group and highest in the extensive and ultra-rapid metabolizer groups | – | – | generally higher; also recorded: increased with the increase in d6-DM dose
